Where two headings read alike, the source gives them in different places.

These results are taken from patent publication US9445597B2, “Pesticidal compositions and related methods” (DOW AGROSCIENCES LLC, priority 2013, dated 2016).

Assay [1] has as its system Green Peach Aphid (Myzus persicae) (GPA) (MYZUPE). As to the kind of experiment: Bioassay for Green Peach Aphid (GPA), foliar spray on cabbage seedlings. As to conditions: 72 h, read-out: % Control (or Mortality) rating, GPA. Type of assay: in vivo. As for the experimental part:
Example A: Bioassay for Green Peach Aphid (Myzus persicae) (GPA) (MYZUPE).
Cabbage seedlings grown in 3-inch pots, with 2-3 small (3-5 cm) true leaves, were used as test substrate. The seedlings were infested with 20-50 GPA (wingless adult and nymph stages) one day prior to chemical application. Four pots with individual seedlings were used for each treatment. Test compounds (2 mg) were dissolved in 2 mL of acetone/methanol (1:1) solvent, forming stock solutions of 1000 ppm test compound. The stock solutions were diluted 5× with 0.025% Tween 20 in H2O to obtain the solution at 200 ppm test compound. A hand-held aspirator-type sprayer was used for spraying a solution to both sides of […] leaves until runoff. Reference plants (solvent check) were sprayed with the diluent only containing 20% by volume of acetone/methanol (1:1) solvent. Treated plants were held in a holding room for three days at approximately 25° C. and ambient relative humidity (RH) prior to grading. Evaluation was conducted by counting the number of live aphids per plant under a microscope. Percent control was measured by using Abbott's correction formula (W. S. Abbott, “A Method of Computing the Effectiveness of an Insecticide” J. Econ. Entomol. 18 (1925), pp. 265-267) as follows. Corrected % Control=100*(X−Y)/X • where • X=No. of live aphids on solvent check plants and • Y=No. of live aphids on treated plants
(§1) Biological Data for Green Peach Aphid (GPA) (MYZUPE) and Sweetpotato Whitefly-crawler (WF) (BEMITA)” (see table section).

Assay [2] has as its system Sweetpotato Whitefly-crawler (WF) (Bemisia tabaci) (BEMITA). As to the kind of experiment: Insecticidal test for Sweetpotato Whitefly-crawler (WF) in foliar spray assay on cotton plants. The assay is classed as in vivo. As to conditions: 216 h, read-out: % Control (or Mortality) rating, WF. As for the experimental part:
Example B: Insecticidal test for Sweetpotato Whitefly-crawler (WF) (Bemisia tabaci) (BEMITA) in foliar spray assay.
Cotton plants (Gossypium hirsutum) grown in 3-inch pots, with 1 small (4-5 cm) true leaves, were used as test substrate. The plants were infested with 200-400 whitefly eggs 4-5 days prior to chemical application. Four pots with individual plants were used for each treatment. Test compounds (2 mg) were dissolved in 1 mL of acetone solvent, forming stock solutions of 2000 ppm test compound. The stock solutions were diluted 10× with 0.025% Tween 20 in H2O (diluents) to obtain the solution at 200 ppm test compound. A hand-held aspirator-type sprayer was used for spraying a solution to both sides of cotton leaves until runoff. Reference plants (solvent check) were sprayed with the diluent only containing 10% by volume of acetone solvent. Treated plants were held in a holding room for 9 days at approximately 25° C. and ambient relative humidity (RH) prior to grading. Evaluation was conducted by counting the number of live 3-4 nymph stage per plant under a microscope. Percent control was measured by using Abbott's correction formula (W. S. Abbott, “A Method of Computing the Effectiveness of an Insecticide” J. Econ. Entomol. 18 (1925), pp. 265-267) as follows. Corrected % Control=100*(X−Y)/X • where • X=No. of live nymphs on solvent check plants and • Y=No. of live nymphs on treated plants.
as §1

[3] abbreviates: 200 ppm foliar spray, cabbage seedlings, graded after three days, Abbott corrected % control.
The mark [4] stands for this setting: 200 ppm foliar spray, cotton plants, graded after 9 days, Abbott corrected % control.

A word on the mortality: it is the share of the test organisms that died. In the case of `Cc1nc(-c2cc(F)c[n+]([O-])c2)sc1N(C)C(=O)OC(C)(C)C` [CA1, 3-(5-((tert-Butoxycarbonyl)(methyl)amino)-4-methylthiazol-2-yl)-5-fluoropyridine 1-oxide], the mortality at 200 ppm is 80 to 100% in assay [1] (foliar) and 0 to 80% in assay [2] (foliar).

As to `CSCCC(=O)Nc1sc(-c2cccnc2)nc1Cl` [Compound C3, N-(4-chloro-2-(pyridin-3-yl)thiazol-5-yl)-3-(methylthio)propanamide], the mortality at 200 ppm in assay [1] (setting [3]) was 80 to 100%; in assay [2] (setting [4]) it was 0 to 80%.

Consider `CC(CS(C)(=O)=O)C(=O)N(C)c1sc(-c2ccc[n+]([O-])c2)nc1Cl` (centres unmarked) [Compound F1, 3-(4-Chloro-5-(N,2-dimethyl-3-(methylsulfonyl)propanamido)thiazol-2yl) pyridine 1-oxide], for which the mortality at 200 ppm is 80 to 100% in assay [1] (setting [3]) and 0 to 80% in assay [2] (setting [4]).

Turning to `CS(=O)(=O)CCC(=O)Nc1sc(-c2ccc[n+]([O-])c2)nc1Cl` [Compound F2], the mortality at 200 ppm in assay [1] (setting [3]) fell in the range of 80 to 100%; in assay [2] (setting [4]) it was 0 to 80%.

With `CCN(C(=O)CCS(C)(=O)=O)c1sc(-c2ccc[n+]([O-])c2)nc1Cl` [Compound F3, 3-(4-chloro-5-(N-ethyl-3-(methylsulfonyl)propanamido)thiazol-2-yl)pyridine 1-oxide], the mortality at 200 ppm in assay [1] (setting [3]) and in assay [2] (setting [4]) was 80 to 100% throughout.

On to `CCN(C(=O)CCSCCC(F)(F)F)c1sc(-c2ccc[n+]([O-])c2)nc1Cl` [Compound P1, 3-(4-chloro-5-(N-ethyl-3-((3,3,3-trifluoropropyl)thio)propanamido)thiazol-2-yl)pyridine 1-oxide], for which the mortality at 200 ppm in assay [1] (setting [3]) and in assay [2] (setting [4]) was 80 to 100% each time.

As for `CCN(C(=O)CC[S+]([O-])CCC(F)(F)F)c1sc(-c2ccc[n+]([O-])c2)nc1Cl` (centres unmarked) [Compound P2, 3-(4-Chloro-5-(N-ethyl-3-((3,3,3-trifluoropropyl)sulfinyl)propanamido)thiazol-2-yl)pyridine 1-oxide], the mortality at 200 ppm in assay [1] (setting [3]) and in assay [2] (setting [4]) was 80 to 100% in each case.

In the case of `CCN(C(=O)CCS(=O)(=O)CCC(F)(F)F)c1sc(-c2ccc[n+]([O-])c2)nc1Cl` [Compound P3, 3-(4-Chloro-5-(N-ethyl-3-((3,3,3-trifluoropropyl)sulfonyl)propanamido)thiazol-2-yl)pyridine 1-oxide], the mortality at 200 ppm in assay [1] (setting [3]) and in assay [2] (setting [4]) was 80 to 100% each time.

For `CCN(C(=O)CCSC)c1sc(-c2ccc[n+]([O-])c2)nc1Cl` [Compound P4, 3-(4-Chloro-5-(N-ethyl-3-(methylthio)propanamido)thiazol-2-yl) pyridine 1-oxide], the mortality at 200 ppm in assay [1] (setting [3]) and in assay [2] (setting [4]) was 80 to 100% in each case.

For `CCN(C(=O)CC[S+](C)[O-])c1sc(-c2ccc[n+]([O-])c2)nc1Cl` (centres unmarked) [Compound P5, 3-(4-Chloro-5-(N-ethyl-3-(methylsulfinyl)propanamido)thiazol-2-yl)pyridine 1-oxide], the mortality at 200 ppm in assay [1] (setting [3]) and in assay [2] (setting [4]) was 80 to 100% throughout.

For the compound `CCN(C(=O)C(C)CSC)c1sc(-c2ccc[n+]([O-])c2)nc1Cl` (centres unmarked) [Compound P6, 3-(4-Chloro-5-(N-ethyl-2-methyl-3-(methylthio)propanamido)thiazol-2-yl)pyridine 1-oxide], the mortality at 200 ppm in assay [1] (setting [3]) and in assay [2] (setting [4]) was 80 to 100% in each case.

`CCN(C(=O)C(C)C[S+](C)[O-])c1sc(-c2ccc[n+]([O-])c2)nc1Cl` (centres unmarked) [Compound P7, 3-(4-Chloro-5-(N-ethyl-2-methyl-3-(methylsulfinyl)propanamido)thiazol-2-yl)pyridine 1-oxide]: the mortality at 200 ppm in assay [1] (setting [3]) and in assay [2] (setting [4]) was 80 to 100% in each case.

Take `CCN(C(=O)C(C)CS(C)(=O)=O)c1sc(-c2ccc[n+]([O-])c2)nc1Cl` (centres unmarked) [Compound P8, 3-(4-Chloro-5-(N-ethyl-2-methyl-3-(methylsulfonyl)propanamido)thiazol-2-yl)pyridine 1-oxide]: the mortality at 200 ppm in assay [1] (setting [3]) and in assay [2] (setting [4]) was 80 to 100% each time.

In the case of `CSCCC(=O)N(C)c1sc(-c2cc(F)c[n+]([O-])c2)nc1C` [FA1, 3-Fluoro-5-(4-methyl-5-(N-methyl-3-(methylthio)propanamido)thiazol-2-yl)pyridine 1-oxide], the mortality at 200 ppm in assay [1] (setting [3]) and in assay [2] (setting [4]) was 80 to 100% throughout.

In the case of `Cc1nc(-c2cc(F)c[n+]([O-])c2)sc1N(C)C(=O)CCS(C)(=O)=O` [FA2, 3-Fluoro-5-(4-methyl-5-(N-methyl-3-(methylsulfonyl)propanamido)thiazol-2-yl)pyridine 1-oxide], the mortality at 200 ppm in assay [1] (setting [3]) and in assay [2] (setting [4]) was 80 to 100% in each case.

Regarding `Cc1nc(-c2cc(F)c[n+]([O-])c2)sc1N(C)C(=O)CC[S+](C)[O-]` (centres unmarked) [FA3, 3-Fluoro-5-(4-methyl-5-(N-methyl-3-(methylsulfinyl)propanamido)thiazol-2-yl)pyridine 1-oxide], the mortality at 200 ppm in assay [1] (setting [3]) and in assay [2] (setting [4]) was 80 to 100% each time.
